Test results from patent US20250051319A1 (AUGUSTINE THERAPEUTICS, priority 2021, published 2025).

Biological target: catalytic domain 2 (CD2) of HDAC6 (Homo sapiens (Human), UniProt Q9UBN7)
Assay: Cellular target engagement assay - NanoBRET
Assay type: cell-based
Settings: NanoLuc-HDAC6(CD2) in HEK293T cells, 2 hours, read-out: IC50 (HDAC6(CD2) interaction)
Description: NanoBRET target engagement was performed against the catalytic domain 2 (CD2) of HDAC6, with minor modifications of kit manufacturer protocol (Promega). Expression of exogenous NanoLuc-HDAC6(CD2) fusion and in HEK293T was achieved following transient transfection with FuGENE HD Transfection Reagent (Promega). The intracellular target engagement assay on HDAC6(CD2) was performed in a 384-well plate format with 8,000 cells per well and a tracer concentration of 0.125 μM or 0.600 μM for HDAC6(CD2). Compounds (dissolved in 100% DMSO) or DMSO (vehicle) were added either manually by diluting them in culture medium at 8× final assay concentration and then adding 5 μL to assay plate or in an automated way by adding […] compound to 5 μL OptiMEM without phenol red (Gibco) using the Echo650 (Labcyte). Tracer solution was added to the cells before seeding 35 μL cell/tracer mixture in the assay plate. The final reaction volume was 40 μL, final DMSO concentration was 1.4% (manual compound addition) or 1.25% (automated compound addition). Assay plates were incubated at 37° C. in a humidified atmosphere containing 5% C02 for 2 hours. The NanoBRET Nano-glo Substrate/Inhibitor was prepared by diluting NanoBRET Nano-Glo Substrate (1:332) and Extracellular Inhibitor (1:1000) in assay medium (Promega). […] BRET ratios were calculated from acceptor/donor signal ratio (mBRET=acceptor/donor*1000) and normalized for each plate. Percentage inhibition was calculated by setting the mBRET obtained with cells without tracer to 100%, while the mBRET obtained with uninhibited cells with tracer was set to 0%. IC50-values were calculated from the percentage inhibition with the log(inhibitor) vs. response—Variable slope (four parameters) nonlinear regression in GraphPad Prism software.

Chain of catalytic domain 2 (CD2) of HDAC6 (Q9UBN7 482-800): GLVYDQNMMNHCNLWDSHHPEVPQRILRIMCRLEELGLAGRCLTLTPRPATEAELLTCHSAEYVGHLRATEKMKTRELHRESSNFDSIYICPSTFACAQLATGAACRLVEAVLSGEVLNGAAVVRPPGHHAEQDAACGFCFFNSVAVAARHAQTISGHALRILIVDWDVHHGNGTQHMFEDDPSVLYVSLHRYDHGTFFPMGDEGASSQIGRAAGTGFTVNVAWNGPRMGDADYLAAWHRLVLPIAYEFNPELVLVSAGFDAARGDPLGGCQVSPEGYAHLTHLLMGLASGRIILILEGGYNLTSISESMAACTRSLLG

IC50 | SMILES
≤ 100 nM | COc1ccc2nc(C)nc(SCC(=O)c3ccc(CNC(=O)[C@H](C)O)s3)c2c1 [Compound 185, (S)-2-hydroxy-N-((5-(2-((6-methoxy-2-methylquinazolin-4-yl)thio)acetyl)thiophen-2-yl)methyl)propanamide]
100 to 500 nM | COc1ccc2nc(C)nc(SCC(=O)c3ccc(CNC(=O)[C@@H](C)O)s3)c2c1 [Compound 186, (R)-2-hydroxy-N-((5-(2-((6-methoxy-2-methylquinazolin-4-yl)thio)acetyl)thiophen-2-yl)methyl)propanamide]
1000 to 10000 nM | O=C(CO)NCc1ccc(C(=O)CSc2nc3c(C(F)(F)F)cccc3o2)s1 [Compound 196, 2-hydroxy-N-((5-(2-((4-(trifluoromethyl)benzo[d]oxazol-2-yl)thio)acetyl)thiophen-2-yl)methyl)acetamide]
100 to 500 nM | CCc1nc(SCC(=O)c2ccc(CNC(=O)C(C)(C)C)s2)c2ccccc2n1 [Example 13, N-((5-(2-((2-ethylquinazolin-4-yl)thio)acetyl)thiophen-2-yl)methyl)pivalamide]
100 to 500 nM | CC(C)(C)C(=O)NCc1ccc(C(=O)CSc2nc(C3CCC3)nc3ccccc23)s1 [Example 14, N-((5-(2-((2-cyclobutylquinazolin-4-yl)thio)acetyl)thiophen-2-yl)methyl)pivalamide]
100 to 500 nM | COc1ccc2nc(C)nc(SCC(=O)c3ccc(CNC(=O)C(C)(C)C)s3)c2c1 [Example 17, N-((5-(2-((6-methoxy-2-methylquinazolin-4-yl)thio)acetyl)thiophen-2-yl)methyl)pivalamide]
100 to 500 nM | Cc1nc(SCC(=O)c2ccc(CNC(=O)C(C)(C)C)s2)c2ncccc2n1 [Example 18, N-((5-(2-((2-methylpyrido[3,2-d]pyrimidin-4-yl)thio)acetyl)thiophen-2-yl)methyl)pivalamide]
≤ 100 nM | Cn1cc2c(SCC(=O)c3ccc(CNC(=O)C(C)(C)C)s3)nc(C(F)(F)F)nc2n1 [Example 22, N-((5-(2-((2-methyl-6-(trifluoromethyl)-2H-pyrazolo[3,4-d]pyrimidin-4-yl)thio)acetyl)thiophen-2-yl)methyl)pivalamide]
100 to 500 nM | Cn1ncc2c(SCC(=O)c3ncc(CNC(=O)C(C)(C)C)s3)ncnc21 [Example 27, N-((2-(2-((1-methyl-1H-pyrazolo[3,4-d]pyrimidin-4-yl)thio)acetyl)thiazol-5-yl)methyl)pivalamide]
500 to 1000 nM | COc1ccc2nc(C)nc(SCC(=O)c3ccc(CNC(=O)C4CC4(F)F)s3)c2c1 (stereo not shown) [Example 39, 2,2-difluoro-N-((5-(2-((6-methoxy-2-methylquinazolin-4-yl)thio)acetyl)thiophen-2-yl)methyl)cyclopropane-1-carboxamide]
1000 to 10000 nM | COc1ccc2nc(C)nc(SCC(=O)c3ccc(CNC(=O)C(F)(F)C(F)(F)F)s3)c2c1 [Example 40, 2,2,3,3,3-pentafluoro-N-((5-(2-((6-methoxy-2-methylquinazolin-4-yl)thio)acetyl)thiophen-2-yl)methyl)propanamide]
≤ 100 nM | Cn1cc2c(SCC(=O)c3ccc(CNC(=O)C4CC4)s3)nc(C(F)(F)F)nc2n1 [Example 41, N-((5-(2-((2-methyl-6-(trifluoromethyl)-2H-pyrazolo[3,4-d]pyrimidin-4-yl)thio)acetyl)thiophen-2-yl)methyl)cyclopropanecarboxamide]
100 to 500 nM | COc1ccc2nc(C)nc(SCC(=O)c3ccc(CNC(=O)C4CC4)s3)c2c1 [Example 51, N-((5-(2-((6-methoxy-2-methylquinazolin-4-yl)thio)acetyl)thiophen-2-yl)methyl)cyclopropanecarboxamide]
100 to 500 nM | O=C(CO)NCc1ccc(C(=O)CSc2nc(C(F)(F)F)nc3ccc(N4CCOCC4)cc23)s1 [Example 63]
100 to 500 nM | CC(=O)NCCc1ccc(C(=O)CSc2nc(C3CC3)nc3ccccc23)s1 [Example 101, N-(2-(5-(2-((2-cyclopropylquinazolin-4-yl)thio)acetyl)thiophen-2-yl)ethyl)acetamide]
500 to 1000 nM | CC(=O)NCc1ccc(C(=O)CSc2ncnc3c2cnn3C)s1 [Example 103, N-((5-(2-((1-methyl-1H-pyrazolo[3,4-d]pyrimidin-4-yl)thio)acetyl)thiophen-2-yl)methyl)acetamide]
500 to 1000 nM | COc1ccc2nc(C)nc(SCC(=O)c3ccc(CCN4CCC(O)C4=O)s3)c2c1 (stereo not shown) [Example 115, 3-hydroxy-1-(2-(5-(2-((6-methoxy-2-methylquinazolin-4-yl)thio)acetyl)thiophen-2-yl)ethyl)pyrrolidin-2-one]

IC50 | SMILES
100 to 500 nM | COc1ccc2nc(C)nc(SCC(=O)c3ccc([C@H](C)NC(=O)CO)s3)c2c1 [Example 128, (S)-2-hydroxy-N-(1-(5-(2-((6-methoxy-2-methylquinazolin-4-yl)thio)acetyl)thiophen-2-yl)ethyl)acetamide]
100 to 500 nM | C[C@H](NC(=O)CO)c1ccc(C(=O)CSc2nc(C(F)(F)F)nc3c2cnn3C)s1 [Example 130, (S)-2-hydroxy-N-(1-(5-(2-((1-methyl-6-(trifluoromethyl)-1H-pyrazolo[3,4-d]pyrimidin-4-yl)thio)acetyl)thiophen-2-yl)ethyl)acetamide]
100 to 500 nM | COc1ccc2nc(C)nc(SCC(=O)c3ccc(CN4CCOCC4=O)s3)c2c1 [Example 137, 4-((5-(2-((6-methoxy-2-methylquinazolin-4-yl)thio)acetyl)thiophen-2-yl)methyl)morpholin-3-one]
100 to 500 nM | COc1ccc2nc(C)nc(SCC(=O)c3ccc(CN4CCC(O)C4=O)s3)c2c1 (stereo not shown) [Example 141, 3-hydroxy-1-((5-(2-((6-methoxy-2-methylquinazolin-4-yl)thio)acetyl)thiophen-2-yl)methyl)pyrrolidin-2-one]
≤ 100 nM | O=C(CSc1nc(C(F)(F)F)nc2ncccc12)c1ccc(CN2CCCC2=O)s1 [Example 157, 1-((5-(2-((2-(trifluoromethyl)pyrido[2,3-d]pyrimidin-4-yl)thio)acetyl)thiophen-2-yl)methyl)pyrrolidin-2-one]
100 to 500 nM | COc1cnc2nc(C)nc(SCC(=O)c3ccc(CN4CCOCC4=O)s3)c2c1 [Example 161, 4-((5-(2-((6-methoxy-2-methylpyrido[2,3-d]pyrimidin-4-yl)thio)acetyl)thiophen-2-yl)methyl)morpholin-3-one]
100 to 500 nM | O=C(CO)NCc1ccc(C(=O)CSc2nccc3cccnc23)s1 [Example 165, N-((5-(2-((1,7-naphthyridin-8-yl)thio)acetyl)thiophen-2-yl)methyl)-2-hydroxyacetamide]
1000 to 10000 nM | O=C(CO)NCc1ccc(C(=O)CSc2nc3cc(Cl)cnc3[nH]2)s1 [Example 166, N-((5-(2-((6-chloro-3H-imidazo[4,5-b]pyridin-2-yl)thio)acetyl)thiophen-2-yl)methyl)-2-hydroxyacetamide]
1000 to 10000 nM | COc1ccc2oc(SCC(=O)c3ccc(CNC(=O)CO)s3)nc2c1 [Example 167, 2-hydroxy-N-((5-(2-((5-methoxybenzo[d]oxazol-2-yl)thio)acetyl)thiophen-2-yl)methyl)acetamide]
1000 to 10000 nM | COc1cccc2oc(SCC(=O)c3ccc(CNC(=O)CO)s3)nc12 [Example 168, 2-hydroxy-N-((5-(2-((4-methoxybenzo[d]oxazol-2-yl)thio)acetyl)thiophen-2-yl)methyl)acetamide]
1000 to 10000 nM | Cn1c(SCC(=O)c2ccc(CNC(=O)CO)s2)nc2ccccc21 [Example 169, 2-hydroxy-N-((5-(2-((1-methyl-1H-benzo[d]imidazol-2-yl)thio)acetyl)thiophen-2-yl)methyl)acetamide]
1000 to 10000 nM | Cc1ccc2oc(SCC(=O)c3ccc(CNC(=O)CO)s3)nc2c1 [Example 170, 2-hydroxy-N-((5-(2-((5-methylbenzo[d]oxazol-2-yl)thio)acetyl)thiophen-2-yl)methyl)acetamide]
1000 to 10000 nM | COc1ccc2nc(SCC(=O)c3ccc(CNC(=O)CO)s3)[nH]c2n1 [Example 173, 2-hydroxy-N-((5-(2-((5-methoxy-3H-imidazo[4,5-b]pyridin-2-yl)thio)acetyl)thiophen-2-yl)methyl)acetamide]
1000 to 10000 nM | O=C(CO)NCc1ccc(C(=O)CSc2nc3cc(Cl)ccc3o2)s1 [Example 174, N-((5-(2-((5-chlorobenzo[d]oxazol-2-yl)thio)acetyl)thiophen-2-yl)methyl)-2-hydroxyacetamide]
1000 to 10000 nM | O=C(CO)NCc1ccc(C(=O)CSc2nccn3ccnc23)s1 [Example 176, 2-hydroxy-N-((5-(2-(imidazo[1,2-a]pyrazin-8-ylthio)acetyl)thiophen-2-yl)methyl)acetamide]
100 to 500 nM | O=C(CO)NCc1ccc(C(=O)CSc2nccc3ncccc23)s1 [Example 179, N-((5-(2-((1,6-naphthyridin-5-yl)thio)acetyl)thiophen-2-yl)methyl)-2-hydroxyacetamide]
100 to 500 nM | O=C(CO)NCc1ccc(C(=O)CSc2nccc3ccncc23)s1 [Example 180, N-((5-(2-((2,7-naphthyridin-1-yl)thio)acetyl)thiophen-2-yl)methyl)-2-hydroxyacetamide]
